In patent US20260285880A1, “SUBSTITUTED DIHYDROTHIENOPYRIMIDINE COMPOUND, PREPARATION METHOD THEREFOR, AND USE THEREOF” (SHANGHAI YIDI BIOTECHNOLOGY CO., LTD., priority 2023, published 2026):
pIC50: −log10 of the molar value.

How the values were obtained:
[1] = target: PDE4B2 (Homo sapiens, UniProt Q07343); conditions: for pIC50: read-out: PDE4B2 IC50, enzyme assay
[2] = target: Flpin-293-PDE4B2 cells (Homo sapiens, UniProt Q07343); test: cell-based; conditions: for inhibition at 0.001 µM: read-out: Cell Inhibition % @1 nM, 1 nM, Flpin-293-PDE4B2 cells; for inhibition at 0.01 µM: read-out: Cell Inhibition % @10 nM, 10 nM, Flpin-293-PDE4B2 cells; for inhibition at 0.1 µM: read-out: Cell Inhibition % @100 nM, 100 nM, Flpin-293-PDE4B2 cells
Sequence of Flpin-293-PDE4B2 cells (Q07343 1-564 isoform Q07343-2): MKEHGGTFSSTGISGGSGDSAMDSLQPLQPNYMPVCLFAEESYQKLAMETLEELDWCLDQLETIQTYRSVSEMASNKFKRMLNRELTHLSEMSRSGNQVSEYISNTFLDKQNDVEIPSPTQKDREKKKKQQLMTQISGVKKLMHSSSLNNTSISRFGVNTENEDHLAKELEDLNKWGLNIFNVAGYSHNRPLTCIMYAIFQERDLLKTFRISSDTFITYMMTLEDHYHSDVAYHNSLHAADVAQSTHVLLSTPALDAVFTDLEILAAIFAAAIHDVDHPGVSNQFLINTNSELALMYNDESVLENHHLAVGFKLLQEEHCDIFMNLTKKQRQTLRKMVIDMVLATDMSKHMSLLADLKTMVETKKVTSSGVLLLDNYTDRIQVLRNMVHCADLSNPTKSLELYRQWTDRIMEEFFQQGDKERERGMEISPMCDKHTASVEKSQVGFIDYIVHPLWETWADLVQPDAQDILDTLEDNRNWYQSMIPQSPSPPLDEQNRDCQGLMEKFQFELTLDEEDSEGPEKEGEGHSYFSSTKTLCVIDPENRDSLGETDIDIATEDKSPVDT

Sequence of PDE4B2 (Q07343 1-564 isoform Q07343-2, species assumed): as the sequence (Q07343 1-564 isoform Q07343-2) above

pIC50 [1]	inhibition at 0.001 µM [2]	inhibition at 0.01 µM [2]	inhibition at 0.1 µM [2]	PDE4B2 Enzyme Inhibition % @10 nM ([1]; 10 nM)	PDE4B2 Enzyme Inhibition % @100 nM ([1]; 100 nM)	Molecule
9.38	12.8%	78.5%	99.9%	–	–	[O-][S+]1CCc2nc(N3CCc4cc(N5CCCC5)ncc4C3)nc(NC3(CO)CCC3)c21 (stereo not drawn) [Compound 183]
9.16	12%	46.8%	76.1%	–	–	CN1C[C@H]2C[C@@H]1CN2c1ccc2c(c1)CCN(c1nc3c(c(NC4(CO)CCC4)n1)[S+]([O-])CC3)C2 (stereo partly drawn) [Compound 155]
9.01	4.1%	7.4%	23.1%	–	–	C[C@H]1CN(c2nc3c(c(NC4(CO)CCC4)n2)[S+]([O-])CC3)Cc2ccc(Cl)cc21 (stereo partly drawn) [Compound 120]
–	–	–	–	20.43%	78.77%	(R)-4-((1-(hydroxymethyl)cyclobutyl)amino)-2-(6-(1-methyl-2,5-dihydro-1H-pyrrol-3-yl)-3,4-dihydroisoquinolin-2(1H)-yl)-6,7-dihydrothieno[3,2-d]pyrimidine 5-oxide [Compound 169]
–	14.8%	85.1%	101%	–	–	COC[C@H]1CCCN1c1ccc2c(c1)CCN(c1nc3c(c(NC4(CO)CCC4)n1)[S+]([O-])CC3)C2 (stereo partly drawn) [Compound 146]
–	3.68%	40.6%	98%	–	–	[O-][S+]1CCc2nc(N3CCc4cc(N5CCCC5)cc(F)c4C3)nc(NC3(CO)CCC3)c21 (stereo not drawn) [Compound 182]
–	3.77%	46%	96.6%	–	–	[O-][S+]1CCc2nc(N3CCc4cc(N5CC[C@H](O)C5)ccc4C3)nc(NC3(CO)CCC3)c21 (stereo partly drawn) [Compound 172]
–	1.8%	15.1%	64.1%	–	–	C[C@H]1c2ccc(N3CCCC3)cc2CCN1c1nc2c(c(Nc3cn(C)nn3)n1)[S+]([O-])CC2 (stereo partly drawn) [Compound 214]
–	–	14.2%	69.9%	–	–	[O-][S+]1CCc2nc(N3CCc4ccc(Cl)cc4C3)nc(NC3(CO)CCC3)c21 (stereo not drawn) [Compound 20]
–	2.17%	16.9%	73.4%	–	–	[O-][S+]1CCc2nc(N3CC[C@H]4c5ccc(Cl)cc5OC[C@H]4C3)nc(NC3(CO)CCC3)c21 (stereo partly drawn) [Compound 116]
–	4.93%	24.9%	51.4%	–	–	NC(=O)c1ccc2c(c1)CCN(c1nc3c(c(NC4(CO)CCC4)n1)[S+]([O-])CC3)C2 (stereo not drawn) [Compound 75]
–	4.48%	9.75%	61.7%	–	–	C[C@H]1c2ccc(N3CCCC3)cc2CCN1c1nc2c(c(Nc3cnn(C4CN(C)C4)c3)n1)[S+]([O-])CC2 (stereo partly drawn) [Compound 209]
–	–	31.1%	76.6%	–	–	[O-][S+]1CCc2nc(N3CCc4nc(Br)sc4C3)nc(NC3(CO)CCC3)c21 (stereo not drawn) [Compound 63]
–	1.66%	17.4%	86.5%	–	–	[O-][S+]1CCc2nc(N3CCC4=C(COc5ccccc54)C3)nc(NC3(CO)CCC3)c21 (stereo not drawn) [Compound 97]
–	26.9%	89.7%	100%	–	–	C[C@H]1c2ccc(N3CCCC3)cc2CCN1c1nc2c(c(NCc3cnn(C)c3)n1)[S+]([O-])CC2 (stereo partly drawn) [Compound 206]
–	41.7%	97%	101%	–	–	[O-][S+]1CCc2nc(N3CCc4cc(-c5cnco5)ccc4C3)nc(NC3(CO)CCC3)c21 (stereo not drawn) [Compound 85]
–	13.8%	73.4%	100%	–	–	C[C@H]1c2ccc(N3CCCC3)cc2CCN1c1nc2c(c(Nc3cnn(CCC#N)c3)n1)[S+]([O-])CC2 (stereo partly drawn) [Compound 220]

pIC50 [1]	inhibition at 0.001 µM [2]	inhibition at 0.01 µM [2]	inhibition at 0.1 µM [2]	PDE4B2 Enzyme Inhibition % @10 nM ([1]; 10 nM)	PDE4B2 Enzyme Inhibition % @100 nM ([1]; 100 nM)	Molecule
–	3.67%	28.8%	93.5%	–	–	[O-][S+]1CCc2nc(N3CCc4cc(N5CC(F)(F)C5)ccc4C3)nc(NC3(CO)CCC3)c21 (stereo not drawn) [Compound 88]
–	61%	99.4%	101%	–	–	Cn1ccc(-c2ccc3c(c2)CCN(c2nc4c(c(NC5(CO)CCC5)n2)[S+]([O-])CC4)C3)n1 (stereo not drawn) [Compound 77]
–	32.9%	97%	101%	–	–	[O-][S+]1CCc2nc(N3CCc4cc(-c5ncco5)ccc4C3)nc(NC3(CO)CCC3)c21 (stereo not drawn) [Compound 84]
–	–	11.3%	48%	–	–	Cn1cc2c(n1)CN(c1nc3c(c(NC4(CO)CCC4)n1)[S+]([O-])CC3)CC2 (stereo not drawn) [Compound 30]
–	–	42.6%	85.8%	–	–	[O-][S+]1CCc2nc(N3Cc4ccc(Br)cc4C3)nc(NC3(CO)CCC3)c21 (stereo not drawn) [Compound 59]
–	3.47%	37.4%	95.3%	–	–	[O-][S+]1CCc2nc(N3CCc4cc(N5CC(F)C5)ccc4C3)nc(NC3(CO)CCC3)c21 (stereo not drawn) [Compound 89]
–	6%	47.7%	97.3%	–	–	[O-][S+]1CCc2nc(N3CCc4c(ncc5cc(Cl)ccc45)C3)nc(NC3(CO)CCC3)c21 (stereo not drawn) [Compound 100]
–	–	14%	62%	–	–	[O-][S+]1CCc2nc(N3CCc4ccc(Cl)cc4CC3)nc(NC3(CO)CCC3)c21 (stereo not drawn) [Compound 34]
–	5.32%	17.3%	61.6%	–	–	[O-][S+]1CCc2nc(N3CC[C@H]4c5cnc(Cl)cc5OC[C@@H]4C3)nc(NC3(CO)CCC3)c21 (stereo partly drawn) [Compound 117]
–	14.2%	47.4%	96.4%	–	–	[O-][S+]1CCc2nc(N3CCc4cc(I)ccc4C3)nc(NC3(CO)CCC3)c21 (stereo not drawn) [Compound 67]
–	2.9%	31.3%	89.1%	–	–	O=C1CCCN1c1ccc2c(c1)CCN(c1nc3c(c(NC4(CO)CCC4)n1)[S+]([O-])CC3)C2 (stereo not drawn) [Compound 87]
–	28.5%	92.4%	101%	–	–	C[C@H]1c2ccc(N3CCCC3)cc2CCN1c1nc2c(c(NC3CCOCC3)n1)[S+]([O-])CC2 (stereo partly drawn) [Compound 205]
–	-0.97%	6.68%	25.4%	–	–	O=C(O)Cc1ccc(Nc2nc(N3CCc4cc(Cl)ccc4C3)nc3c2[S@@+]([O-])CC3)cc1 [Compound 128]
–	19.1%	77.5%	99.9%	–	–	COc1ccc2sc3c(c2c1)CCN(c1nc2c(c(NC4(CO)CCC4)n1)[S+]([O-])CC2)C3 (stereo not drawn) [Compound 82]
–	-1.71%	46.7%	95.8%	–	–	Cn1c2c(c3ccc(Cl)cc3c1=O)CCN(c1nc3c(c(NC4(CO)CCC4)n1)[S+]([O-])CC3)C2 (stereo not drawn) [Compound 98]
–	23.5%	74.2%	97.7%	–	–	[O-][S+]1CCc2nc(N3CCc4c(nn5cc(F)ccc45)C3)nc(NC3(CO)CCC3)c21 (stereo not drawn) [Compound 32]
–	5.79%	47.8%	97.3%	–	–	[O-][S+]1CCc2nc(N3CC[C@@H]4c5ccccc5OC[C@H]4C3)nc(NC3(CO)CCC3)c21 (stereo partly drawn) [Compound 83]
